Measured values reported in patent US4771068A, “Mitomycin derivatives having anti-tumor and antibacterial utility” (priority 1985, dated 1988).
In brackets after ≈: the same amount, converted by molar mass.

Columns and labels:
[1] = system: Streptococcus faecalis ATCC 10541; assay: Antibacterial activity (minimum growth inhibitory concentration), agar dilution method; format: cell-based; details: Enterococcus faecalis, ATCC10541; Streptococcus faecalis ATCC 10541, pH 7.0, agar dilution method; read-out: minimum growth inhibitory concentration, SF
Experimental: (§1) Antibacterial activities of Compounds (I) against various bacteria are shown by the minimum growth inhibitory concentration (μg/ml) in Table 3. The minimum growth inhibitory concentration was measured at pH 7.0 according to the agar dilution method. In the table, bacteria are indicated by the following letters.
SF: Streptococcus faecalis ATCC 10541

[2] = system: Staphylococcus aureus ATCC 6538P; assay: as above; format: cell-based; details: ATCC6538P, pH 7.0, agar dilution method, read-out: minimum growth inhibitory concentration, SA
Experimental: as §1
SA: Staphylococcus aureus ATCC 6538P

Bacillus subtilis 10707 = assay: as above; format: cell-based; details: Bacillus subtilis 10707, pH 7.0, agar dilution method; read-out: minimum growth inhibitory concentration, BS
Experimental: as §1
BS: Bacillus subtilis 10707

[3] = system: Proteus vulgalis ATCC 6897; assay: as above; format: cell-based; details: pH 7, read-out: minimum growth inhibitory concentration, PV
Experimental: as §1
PV: Proteus vulgalis ATCC 6897

[4] = system: Klebsiella pneumoniae ATCC 10031; assay: as above; format: cell-based; details: ATCC10031; Klebsiella pneumoniae ATCC 10031, pH 7.0, agar dilution method; read-out: minimum growth inhibitory concentration, KP
Experimental: as §1
KP: Klebsiella pneumoniae ATCC 10031

Sarcoma 180 solid tumour = assay: animal or person; details: for CIc: CI of test compound divided by CI of mitomycin C as control in the same condition; for ED50: Mus musculus, Sarcoma-180, iv, 168 h; for CI (LD50/ED50): chemotherapeutic index
From the text: CIc : Value given by division of CI of each test compound by CI of
determination of antitumour activity of the test compound. A CIc
5×10^6 cells of Sarcoma 180 solid tumour were intraperitoneally implanted into ddY mice. 7 days later, ascites cells were sampled. The cells were washed once with a sterilized physiological sodium chloride solution and were used to prepare a cell suspension containing 5×10^7 cells per ml with a sterilized physiological sodium chloride solution. On each occasion, 0.1 ml of the cell suspension was subcutaneously implanted into the right axilla of a male mouse (ddY strain; body weight 20±2 g).
The anti-tumour activity was determined in the following manner. 7 days after the implantation, the major axis (a) and the minor axis (b) of the tumour were measured to calculate a value of "a×b^2 /2" which corresponds to the volume of the tumour. The anti-tumour activity was expressed by the ratio (T/C) of the volume (T) of the tumours of the group of animals administered with the test compound to the corresponding volume (C) of tumours of the untreated animals.
On graph paper, T/C was indicated by an arithmetic scale on the longitudinal axis and the administered amount of the test compound was indicated by a logarithmic scale on the lateral axis.

Acute toxicity = details: mouse, in vivo, ip; ddY mice, intraperitoneally once, 14 days observation
Experimental: Each animal of the test group consisting of 5 ddY mice was administered intraperitoneally once with a test compound. […] The LD50 was determined by Beherns Kaerber's method.

peripheral leucocytes = assay: Effect on the peripheral leucocytes number; format: in vivo, mouse (ddY strain); details: minimum dose reducing peripheral leucocytes number to 4000/mm^3; tumour-carrying ddY mice, intraperitoneal, 4 days after administration
Experimental: WBC4000 : Minimum dose of a test compound which reduces the
peripheral leucocytes number to 4000/mm^3.
Sarcoma 180 solid tumour cells (5×10^6) were subcutaneously implanted into the right axilla of each mouse (body weight 20±2 g) of a group consisting of 5 male mice (ddY strain). 24 hours after implantation,a test compound was intraperitoneally administered to each animal. 4 days after the administration, blood (each 0.02 ml) was collected from the suborbital plexus vein of each tumour-carrying animal. The collected sample of blood was dispersed in 9.98 ml of Cell-Kit Seven solution. One drop of saponin solution was added to the sample to dissolve erythrocytes and then a microcell counter was used to count the number of leucocytes. […] The relationship between the number of peripheral leucocytes and the dose of the test compound was plotted and the dose (i.e., WBC4000) corresponding to 4000 peripheral leucocytes/mm^3 (about half the number of leucocytes of normal mice) was obtained.

SMILES	MIC [1]	MIC [2]	MIC (Bacillus subtilis 10707)	MIC [3]	MIC [4]	CIc (Sarcoma 180 solid tumour)	ED50 (Sarcoma 180 solid tumour)	CI (LD50/ED50) (Sarcoma 180 solid tumour)	LD50 at 336 h (Acute toxicity)	WBC4000 (peripheral leucocytes)
CC1=C(NCCSC(=O)c2ccc([N+](=O)[O-])cc2)C(=O)C2=C(C1=O)N1C[C@H]3[C@H](N3C)[C@]1(O)[C@H]2COC(N)=O (stereo partly drawn) [Compound 25]	13 µg/mL (≈ 23.9 µM)	3.1 µg/mL (≈ 5.7 µM)	0.39 µg/mL (≈ 0.717 µM)	> 100 µg/mL	13 µg/mL (≈ 23.9 µM)	1.6	6.9 mg/kg	4.9	33.8 mg/kg	15.9 mg/kg
CO[C@@]12[C@H](COC(N)=O)C3=C(C(=O)C(C)=C(NCCCCCCCCSC(=O)c4ccc(F)cc4)C3=O)N1C[C@@H]1N[C@@H]12 [Compound 20]	0.63 µg/mL (≈ 1.05 µM)	0.63 µg/mL (≈ 1.05 µM)	0.31 µg/mL (≈ 0.516 µM)	> 40 µg/mL	40 µg/mL (≈ 66.6 µM)	1.6	16.3 mg/kg	3.8	62.5 mg/kg	13.0 mg/kg
C=C1C2=C(C(=O)C(C)=C(NCCSC(C)=S)C2=O)N2C[C@H]3[C@H](N3C)[C@]12O (stereo partly drawn) [Compound 29]	> 100 µg/mL	3.1 µg/mL (≈ 7.92 µM)	1.6 µg/mL (≈ 4.09 µM)	13 µg/mL (≈ 33.2 µM)	25 µg/mL (≈ 63.9 µM)	–	–	–	–	–
CO[C@@]12[C@H](COC(N)=O)C3=C(C(=O)C(C)=C(NCCCCCCCCSC(C)=O)C3=O)N1C[C@@H]1N[C@@H]12 [Compound 12]	5 µg/mL (≈ 9.6 µM)	0.31 µg/mL (≈ 0.595 µM)	0.31 µg/mL (≈ 0.595 µM)	5 µg/mL (≈ 9.6 µM)	1.3 µg/mL (≈ 2.5 µM)	1.3	9.7 mg/kg	4.6	45 mg/kg	19.6 mg/kg
COc1ccc(C(=O)SCCNC2=C(C)C(=O)C3=C(C2=O)[C@H](COC(N)=O)[C@@]2(O)[C@@H]4[C@H](CN32)N4C)cc1 (stereo partly drawn) [Compound 24]	100 µg/mL (≈ 189 µM)	1.6 µg/mL (≈ 3.03 µM)	1.6 µg/mL (≈ 3.03 µM)	–	–	1.3	7.2 mg/kg	3.8	27.5 mg/kg	25.5 mg/kg
CC1=C(NCCSC(=O)c2ccc(Br)cc2)C(=O)C2=C(C1=O)N1C[C@H]3[C@H](N3C)[C@]1(O)[C@H]2COC(N)=O (stereo partly drawn) [Compound 22]	25 µg/mL (≈ 43.3 µM)	0.39 µg/mL (≈ 0.675 µM)	< 0.049 µg/mL	–	> 100 µg/mL	–	–	–	–	–
CO[C@@]12[C@H](COC(N)=O)C3=C(C(=O)C(C)=C(NCCSC(C)=S)C3=O)N1C[C@H]1[C@@H]2N1C (stereo partly drawn) [Compound 28]	0.039 µg/mL (≈ 0.0836 µM)	< 0.02 µg/mL	< 0.02 µg/mL	2.5 µg/mL (≈ 5.36 µM)	1.3 µg/mL (≈ 2.79 µM)	1.1	3.3 mg/kg	4.0	13.1 mg/kg	10.4 mg/kg
CO[C@@]12[C@H](COC(N)=O)C3=C(C(=O)C(C)=C(NCCCCCCSC(C)=S)C3=O)N1C[C@@H]1N[C@@H]12 [Compound 31]	2.5 µg/mL (≈ 4.91 µM)	1.3 µg/mL (≈ 2.56 µM)	2.5 µg/mL (≈ 4.91 µM)	10 µg/mL (≈ 19.7 µM)	2.5 µg/mL (≈ 4.91 µM)	> 1.5	28.1 mg/kg	> 3.6	> 100 mg/kg	27.5 mg/kg
CC(=S)SCCNC1=C(C)C(=O)C2=C(C1=O)[C@H](COC(N)=O)[C@@]1(O)[C@@H]3[C@H](CN21)N3C (stereo partly drawn) [Compound 27, 7-N-(2-dithioacetyloxyethyl)mitomycin D]	0.39 µg/mL (≈ 0.862 µM)	0.2 µg/mL (≈ 0.442 µM)	< 0.049 µg/mL	3.1 µg/mL (≈ 6.85 µM)	0.78 µg/mL (≈ 1.72 µM)	1.1	3.4 mg/kg	3.9	13.1 mg/kg	15.5 mg/kg
CO[C@@]12[C@H](COC(N)=O)C3=C(C(=O)C(C)=C(NCCCCCCSC(=O)c4ccccc4)C3=O)N1C[C@@H]1N[C@@H]12 [Compound 17]	2.5 µg/mL (≈ 4.51 µM)	0.63 µg/mL (≈ 1.14 µM)	0.16 µg/mL (≈ 0.288 µM)	> 40 µg/mL	10 µg/mL (≈ 18 µM)	> 1.7	9.5 mg/kg	> 5.3	> 50 mg/kg	32.2 mg/kg
